The results in this text go back to ChEMBL document CHEMBL5579901, “Discovery of Novel [1,2,4]Triazolo[1,5-a]pyrimidine Derivatives as Novel Potent S-Phase Kinase-Associated Protein 2 (SKP2) Inhibitors for the Treatment of Cancer” (J Med Chem, 2024).

Molecules are shown by their SMILES. pIC50: −log10 of the molar value. Some results are limits rather than exact numbers.

The target of test [1] is T1, Cyclin-dependent kinases regulatory subunit 1/S-phase kinase-associated protein 2 (Homo sapiens, UniProt Q13309). Nature of the test: Inhibition of GST-tagged SKP2 (unknown origin) binding to His6-tagged CKS1 (unknown origin) preincubated with SKP2 for 10 mins followed by CKS1 addition for 20 mins and measured after by HTRF method. Format: protein assay. (In general: In TR-FRET formats the signal depends on donor and acceptor labels being close together.)
T1 sequence (P61024 whole entry): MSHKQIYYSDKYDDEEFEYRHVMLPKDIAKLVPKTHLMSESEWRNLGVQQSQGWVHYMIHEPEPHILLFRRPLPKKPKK
T1 sequence (Q13309 whole entry): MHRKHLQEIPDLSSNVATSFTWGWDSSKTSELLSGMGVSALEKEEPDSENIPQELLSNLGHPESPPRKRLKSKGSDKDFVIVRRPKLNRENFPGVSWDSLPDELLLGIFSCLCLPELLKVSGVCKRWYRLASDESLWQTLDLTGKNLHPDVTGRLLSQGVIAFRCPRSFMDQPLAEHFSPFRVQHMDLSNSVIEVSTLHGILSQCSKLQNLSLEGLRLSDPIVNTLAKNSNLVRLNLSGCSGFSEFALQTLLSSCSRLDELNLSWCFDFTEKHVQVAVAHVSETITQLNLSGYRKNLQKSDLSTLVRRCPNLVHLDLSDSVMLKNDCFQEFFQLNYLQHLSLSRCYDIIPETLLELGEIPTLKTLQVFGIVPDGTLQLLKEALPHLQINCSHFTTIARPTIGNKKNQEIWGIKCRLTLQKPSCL

The target in test [2] is T2, Cyclin-dependent kinases regulatory subunit 1/S-phase kinase-associated protein 2 (Homo sapiens) (UniProt P61024+Q13309). The test can be described thus: Inhibition of GST-tagged SKP2 (unknown origin) binding to His6-tagged CKS1 (unknown origin) at 50 uM preincubated with SKP2 for 10 mins followed by CKS1 addition for 20 mins and measured after by HTRF method relative to control. Format: protein assay. As to conditions: time 30.0 min.
T2 sequence (P61024 2-79 limits assumed): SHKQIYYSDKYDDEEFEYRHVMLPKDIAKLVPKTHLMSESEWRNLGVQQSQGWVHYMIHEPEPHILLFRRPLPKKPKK
T2 sequence (Q13309 whole entry partner): as the sequence (Q13309 whole entry) above

The next test has as its system A549. The test can be described thus: Antiproliferative activity against human A549 cells incubated for 48 hrs by MTT assay. As to conditions: A549, 48 h. Format: functional, cell-based.
For test [3], the target named is T2, Cyclin-dependent kinases regulatory subunit 1/S-phase kinase-associated protein 2 (Homo sapiens). The test can be described thus: Inhibition of GST-tagged SKP2 (unknown origin) to His6-tagged CKS1 (unknown origin) protein protein interaction at 50 umol/L by HTRF method relative to control. The class given is protein assay. As to conditions: dose 50.0 µmol/L.

Test [4] has as its target T1, Cyclin-dependent kinases regulatory subunit 1/S-phase kinase-associated protein 2. The test can be described thus: Inhibition of GST-tagged SKP2 (unknown origin) binding to His6-tagged CKS1 (unknown origin) incubated for 1 hr by AlphaScreen assay. The class given is protein assay.
The test system of the next test is PC-3. Nature of the test: Inhibition of cell proliferation in human PC-3 cells incubated for 72 hrs by MTT assay. The class given is functional, cell-based. The settings on record: PC-3, 72 h. In general terms: Tetrazolium dyes change colour on reduction, which living cells bring about.
In another test the test system is MGC-803. The test can be described thus: Inhibition of cell proliferation in human MGC-803 cells incubated for 72 hrs by MTT assay. Format: functional, cell-based. As to conditions: MGC-803, 72 h.

As a reminder, the pIC50 is the IC50 on a negative log10 scale, so that one unit is a factor of ten. Low values mean a large IC50, high ones a small IC50. By inhibition is commonly meant the relative decrease from the control value, in per cent. Low values mean a weak effect, high ones a strong effect.

As to `Cc1cc(Cl)n2nc(SCc3ccc(Br)cc3)nc2n1`, in test [1], the negative logarithm of the IC50 (pIC50) is 4.12. Also, in test [2], the inhibition stood at 22%.
In the case of `COc1cc(OC)c(-c2cc(C)nc3nc(SCc4ccccc4)nn23)c(OC)c1`, the pIC50 in test [1] is 4.83. For the same molecule, the inhibition in test [2] was 60%.
The corresponding values for `COc1cc(OC)c(-c2cc(C)nc3nc(SCc4cccc(Br)c4)nn23)c(OC)c1` are 4.21 and 42.5%.
As to `COc1cc(OC)c(-c2cc(C)nc3nc(SCc4ccncc4)nn23)c(OC)c1`, in test [1], the pIC50 is below 4.00. In addition, the inhibition in test [2] is 10%.
Molecule `COc1cc(OC)c(-c2cc(C)nc3nc(SCc4ccc(F)cc4)nn23)c(OC)c1` gave a pIC50 in test [1] of 4.01. The same molecule had an inhibition in test [2] of 24%.
In test [1], `COc1cc(OC)c(-c2cc(C)nc3nc(SCC4CCC4)nn23)c(OC)c1` gave a negative-log IC50 (pIC50) of 4.08. Also, in test [2], the inhibition is 20.2%.
The molecule `COC(=O)c1cccc(CSc2nc3nc(C)cc(-c4c(OC)cc(OC)cc4OC)n3n2)c1` had a negative-log IC50 (pIC50) in test [1] below 4.00. Further, the inhibition in test [2] amounted to 10.2%.
In turn, `Cc1cc(-c2cccc(C(=O)N3CCN(C)CC3)c2)n2nc(SCc3ccc(Br)cc3)nc2n1` gave a pIC50 in test [1] below 4.00. Besides, the inhibition in test [2] amounted to 23.4%.
`COc1cc(OC)c(-c2cc(C)nc3nc(SCc4cccc5ccccc45)nn23)c(OC)c1` showed a negative-log IC50 (pIC50) in test [1] below 4.00. The molecule also came in with an inhibition in test [2] of 17.4%.
As to `Cc1cc(-c2cccc(C(=O)O)c2)n2nc(SCc3ccc(Br)cc3)nc2n1`, the pIC50 in test [1] was below 4.00. For the same molecule, the inhibition in test [2] stood at 17.9%.
The matching figures for `COc1cc(OC)c(-c2cc(C)nc3nc(SCc4ccc(Cl)cc4)nn23)c(OC)c1`: below 4.00 and 9.13%.
Regarding `COC(=O)c1cccc(Nc2cc(C)nc3nc(SCc4ccc(Br)cc4)nn23)c1`, in test [1], the pIC50 is below 4.00. The inhibition in test [2] was found to be 12.4%.
In turn, `COc1cc(OC)c(-c2cc(C)nc3nc(SCC4CCOCC4)nn23)c(OC)c1` had a negative logarithm of the IC50 (pIC50) in test [1] below 4.30. This molecule registered an inhibition in test [2] of 16.3%.
The corresponding values for `COc1cc(OC)c(-c2cc(C)nc3nc(SCc4cccc(Cl)c4)nn23)c(OC)c1` are below 4.00 and 15.9%.
The matching figures for `COc1cc(OC)c(-c2cc(C)nc3nc(SCc4ccc(C)cc4)nn23)c(OC)c1`: below 4.00 and 11.5%.
The molecule `Cc1cc(Br)n2nc(SCc3ccc(Br)cc3)nc2n1` gave a negative logarithm of the IC50 (pIC50) in test [1] of 4.17. For the same molecule, the inhibition in test [2] was found to be 47%.
In test [1], `COc1cccc(-c2cc(C)nc3nc(SCc4ccc(Br)cc4)nn23)c1` showed a pIC50 of 4.39. The molecule further returned an inhibition in test [2] of 58.7%.
As for `Cc1cc(-c2ccc(C(=O)N3CCN(C)CC3)cc2)n2nc(SCc3ccc(Br)cc3)nc2n1`, in test [1], the negative logarithm of the IC50 (pIC50) is below 4.00. Also, the inhibition in test [2] amounted to 14.6%.
In turn, `Cc1cc(-c2ccc3c(c2)OCCO3)n2nc(SCc3ccc(Br)cc3)nc2n1` gave a pIC50 in test [1] of 4.15. In test [2], this molecule came in with an inhibition of 37.4%.
As for `COc1cc(C2=NC3=NC(C)=C(C(C)=O)C(c4ccc([N+](=O)[O-])cc4)N3N2)cc(OC)c1OC` (configuration not stated), the pIC50 in the test on A549 is 5.99.
Molecule `C#CCSc1nc2nc(C)cc(-c3c(OC)cc(OC)cc3OC)n2n1` had a negative logarithm of the IC50 (pIC50) in test [1] below 4.00. For the same molecule, in test [2], the inhibition turned out to be 5.84%.
The molecule `COc1cc(OC)c(-c2cc(C)nc3nc(SCC4CCCCC4)nn23)c(OC)c1` had a pIC50 in test [1] of 4.76. In addition, the inhibition in test [2] stood at 60%.
In test [1], `COc1cc(OC)c(-c2cc(C)nc3nc(SCc4cccc(Cl)c4Cl)nn23)c(OC)c1` had a pIC50 below 4.00. In test [2], this molecule registered an inhibition of 7.29%.
Turning to `COc1cc(-c2cc(C)nc3nc(SCc4ccc(Br)cc4)nn23)cc(OC)c1OC`, the pIC50 in test [1] is 4.51. The molecule also gave an inhibition in test [2] of 58.8%.
`COc1cc(OC)c(-c2cc(C)nc3nc(SCc4ccc(I)cc4)nn23)c(OC)c1` yielded an inhibition in test [2] of 41.7%.
Consider `COc1ccc(N2C(=O)c3ccccc3C2Cc2cc(-c3c(OC)cc(O)cc3OC)n3ncnc3n2)cc1` (configuration not stated), for which the inhibition in test [3] stood at 54%.
As for `CCCSc1nc2nc(C)cc(-c3c(OC)cc(OC)cc3OC)n2n1`, in test [1], the negative-log IC50 (pIC50) is below 4.00. The inhibition in test [2] was determined as 24.5%.
The matching figures for `COc1ccc(-c2cc(C)nc3nc(SCc4ccc(Br)cc4)nn23)cc1`: 4.14 and 34.6%.
Take `COC(=O)c1ccc(CCc2cc(O)ccc2O)cc1`: the negative-log IC50 (pIC50) in test [4] is 4.44.
As to `C=CCSc1nc2nc(C)cc(-c3c(OC)cc(OC)cc3OC)n2n1`, the negative-log IC50 (pIC50) in test [1] was below 4.00. This molecule also displayed an inhibition in test [2] of 2.51%.
In the case of `COc1cc(OC)c(-c2cc(C)nc3nc(SCc4ccccc4Br)nn23)c(OC)c1`, the pIC50 in test [1] was 4.18. In test [2], this molecule returned an inhibition of 43%.
In turn, `COc1cc(OC)c(-c2cc(C)nc3nc(SCc4ccc(Br)cc4)nn23)c(OC)c1` gave a pIC50 in test [1] of 4.93. This molecule showed an inhibition in test [2] of 69.6%.
Take `COc1ccc(CSc2nc3nc(C)cc(-c4c(OC)cc(OC)cc4OC)n3n2)cc1`: the pIC50 in test [1] was below 4.00. In test [2], this molecule gave an inhibition of 11.5%.
The matching figures for `COc1cc(OC)c(-c2cc(C)nc3nc(SCc4ccc(C(F)(F)F)cc4)nn23)c(OC)c1`: 4.03 and 27.1%.
As to `O=C(OCC12CC3CC(CC(C3)C1)C2)c1ccc(NCc2cc(O)ccc2O)cc1`, the pIC50 in test [4] is 4.44.
In turn, `COc1cc(OC)c(-c2cc(C)nc3nc(SCC4CCCC4)nn23)c(OC)c1` had a pIC50 in test [1] of 4.21. Moreover, the inhibition in test [2] was determined as 28%.
`COC(=O)c1ccc(Nc2cc(C)nc3nc(SCc4ccc(Br)cc4)nn23)cc1` had a pIC50 in test [1] below 4.00. In test [2], the inhibition came out at 12.4%.
In test [1], `COc1ccccc1-c1cc(C)nc2nc(SCc3ccc(Br)cc3)nn12` gave a pIC50 below 4.00. For the same molecule, the inhibition in test [2] was 27.2%.
As for `O=c1[nH]cc(F)c(=O)[nH]1` [FLUOROURACIL], the pIC50 is 4.99 with PC-3 and 4.36 in the test on MGC-803.
`Cc1cc(-c2ccccc2)n2nc(SCc3ccc(Br)cc3)nc2n1` showed a negative logarithm of the IC50 (pIC50) in test [1] of 4.35. The inhibition in test [2] was 55.3%.
Regarding `COc1cccc(OC)c1-c1cc(C)nc2nc(SCc3ccc(Br)cc3)nn12`, the negative logarithm of the IC50 (pIC50) in test [1] was 4.12. This molecule displayed an inhibition in test [2] of 37%.
In test [1], `COc1cc(OC)c(-c2cc(C)nc3nc(SCc4cnc(Cl)s4)nn23)c(OC)c1` had a pIC50 of 4.14. In test [2], this molecule registered an inhibition of 31.5%.
The matching figures for `Cc1cc(-c2ccc(C(=O)O)cc2)n2nc(SCc3ccc(Br)cc3)nc2n1`: below 4.00 and 20.1%.
Take `Cc1cc(-c2ccc(-c3ccccc3)cc2)n2nc(SCc3ccc(Br)cc3)nc2n1`: the pIC50 in test [1] is 4.98. In test [2], this molecule had an inhibition of 66.2%.
`CCSc1nc2nc(C)cc(-c3c(OC)cc(OC)cc3OC)n2n1` gave a pIC50 in test [1] below 4.00. Further, the inhibition in test [2] came to 3.73%.
The corresponding values for `COc1cc(OC)c(-c2cc(C)nc3nc(SCCCc4ccccc4)nn23)c(OC)c1` are below 4.00 and 20.3%.
